Test results as given in patent publication US7252835B2, “Agent for preventing and/or treating sinusitis” (Ono Pharmaceutical Co., Ltd., priority 1998, dated 2007).
Where two headings read alike, the source gives them in different places.

Assays:
[1] = tested on: Normal human paranasal sinus mucosa; assay: Inhibitory effect on the reduction of ciliary movement in paranasal sinus mucosa induced by LTs; format: cell-based; settings: pranlukast hydrate 1 μM, FIG. 1
Excerpt: Inhibitory Effect of Pranlukast Hydrate on the Reduction of Ciliary Movement in Paranasal Sinus Mucosa Induced by LTs
1) Culturing of Paranasal Sinus Mucosa
Normal human paranasal sinus mucosa obtained at the time of surgical operation of facial trauma or the like was used on the agreement of the patient. The collected paranasal sinus mucosa was thoroughly washed with a culture medium RPMI 1640 (Gibco Life Technologies), cut into 4 mm×4 mm species and then subjected to tissue culture in a culturing chamber of 35 mm×10 mm using RPMI 1640 containing 10% FCS (fetal calf serum). In order to remove mucus and cellular debris, the culture medium was exchanged every other day.
2) Preparation of Test Solutions […]
When a test solution was added to the mucosal tissue, culture medium in the chamber was removed and mucosal tissue was washed with RPMI 1640 and then the test solution (1 ml) was injected. As a control, the ciliary activity was measured in case of injecting only RPMI 1640 into the chamber. By defining the ciliary activity measured just before injection of each test solution (0 minute) as the reference value (100), the ciliary activity measured after injection of each test solution was expressed as percentage (%) of the reference value. […]

[2] = tested on: intractable sinusitis patients; assay: Effect of pranlukast hydrate on intractable sinusitis (clinical, oral administration); format: in vivo, human; settings: 450 mg/day oral
Experimental: Effect of Pranlukast Hydrate on Intractable Sinusitis
Pranlukast hydrate was orally administered to intractable sinusitis patients (34 persons, average age 54.4 years) at a daily dose of 450 mg (112.5 mg/capsule, 2 capsules per 1 time, twice a day (after every breakfast and supper), every day administration). On the 2 weeks, 4 weeks, 6 weeks and 8 weeks after the administration, 1) improving degree of the nasal mucosa swelling, 2) improving degree of the properties of nasal flow, 3) improving degree of the amount of nasal flow, 4) improving degree of the postnasal discharge, 5) improving degree of the nasal obstruction, 6) improving degree of the nasal flow (frequency of blowing nose) and 7) improving degree of the X-ray shadow of each patient were judged (however, parameters in respective weeks are not constant).

mice = settings: both, mouse, in vivo
Experimental: (§1) It was confirmed that the compound of the formula (I) or a salt and/or hydrate thereof has sufficiently low toxicity and is sufficiently safe for using it as a medicament. For example, as the acute toxicity of pranlukast hydrate, its minimum lethal dose was 2,000 mg/kg or more (oral or subcutaneous administration), or 30 mg/kg or more (intravenous injection) in mice and rats (both males and females).

rats = settings: both, rat, in vivo
Experimental: as §1

In the case of O=C(Nc1cccc2c(=O)cc(-c3nnn[nH]3)oc12)c1ccc(OCCCCc2ccccc2)cc1 [pranlukast hydrate, 4-oxo-8-[4-(4-phenylbutoxy)benzoylamino]-2-(tetrazol-5-yl)4H-1-benzopyran·½ hydrate], the “inhibition of reduction of paranasal sinus mucosa ciliary activity induced by LTC4” value ([1]; LTC4 0.1 μM, ciliary activity after 6 hours) is reported as “has the activity to inhibit reduction of paranasal sinus mucosa ciliary activity”, the “inhibition of reduction of paranasal sinus mucosa ciliary activity induced by LTD4” value ([1]; LTD4 0.1 μM, ciliary activity after 4 hours) is reported as “has the activity to inhibit reduction of paranasal sinus mucosa ciliary activity” and the “Effective ratio, improving degree of the amount of nasal flow” value ([2]; on the 2nd week) is reported as 52%. For the same compound, the “Effective ratio, improving degree of the nasal flow (frequency of blowing nose)” value (from here on “Effective ratio … (frequency of blowing nose)”) ([2]; on the 2nd week) was 34%, the “Effective ratio, improving degree of the nasal mucosa swelling” value ([2]; on the 2nd week) was 32% and the “Effective ratio, improving degree of the nasal obstruction” value ([2]; on the 2nd week) was 19%. For the same compound, the “Effective ratio, improving degree of the postnasal discharge” value ([2]; on the 2nd week) was 39%, the “Effective ratio, improving degree of the properties of nasal flow” value ([2]; on the 2nd week) was 33% and the “Effective ratio, improving degree of the amount of nasal flow” value ([2]; on the 4th week) was 55%. The “Effective ratio … (frequency of blowing nose)” value ([2]; on the 4th week) was 52%, the “Effective ratio, improving degree of the nasal mucosa swelling” value ([2]; on the 4th week) was 29% and the “Effective ratio, improving degree of the nasal obstruction” value ([2]; on the 4th week) was 21%. For the same compound, the “Effective ratio, improving degree of the postnasal discharge” value ([2]; on the 4th week) was 38%, the “Effective ratio, improving degree of the properties of nasal flow” value ([2]; on the 4th week) was 48% and the “Effective ratio, improving degree of the amount of nasal flow” value ([2]; on the 6th week) was 68%. For the same compound, the “Effective ratio … (frequency of blowing nose)” value ([2]; on the 6th week) was 65%, the “Effective ratio, improving degree of the nasal mucosa swelling” value ([2]; on the 6th week) was 43% and the “Effective ratio, improving degree of the nasal obstruction” value ([2]; on the 6th week) was 35%. For the same compound, the “Effective ratio, improving degree of the postnasal discharge” value ([2]; on the 6th week) was 39%, the “Effective ratio, improving degree of the properties of nasal flow” value ([2]; on the 6th week) was 52% and the “Effective ratio, improving degree of the X-ray shadow” value ([2]; on the 8th week) was 83%. For the same compound, the “Effective ratio, improving degree of the amount of nasal flow” value ([2]; on the 8th week) was 65%, the “Effective ratio … (frequency of blowing nose)” value ([2]; on the 8th week) was 60% and the “Effective ratio, improving degree of the nasal mucosa swelling” value ([2]; on the 8th week) was 40%. The “Effective ratio, improving degree of the nasal obstruction” value ([2]; on the 8th week) was 29%, the “Effective ratio, improving degree of the postnasal discharge” value ([2]; on the 8th week) was 62% and the “Effective ratio, improving degree of the properties of nasal flow” value ([2]; on the 8th week) was 53%. The “overall clinical effect on subjective symptoms and objective findings of intractable sinusitis” value ([2]; summary of Tables 1 to 7) was “has clinical effects on sinusitis”, the minimum lethal dose (mice; iv) was ≥ 30 mg/kg and the minimum lethal dose (mice; po) was ≥ 2,000 mg/kg. For the same compound, the minimum lethal dose (mice; sc) was ≥ 2,000 mg/kg, the minimum lethal dose (rats; iv) was ≥ 30 mg/kg and the minimum lethal dose (rats; po) was ≥ 2,000 mg/kg. The minimum lethal dose (rats; sc) was ≥ 2,000 mg/kg.
